Reference: ChEMBL document CHEMBL4680353, “Synthesis, anticancer activity and molecular docking studies of N-deacetylthiocolchicine and 4-iodo-N-deacetylthiocolchicine derivatives” (Bioorg Med Chem, 2021)
Active and inactive are the calls of the source. No cut-off for these calls is given here.

Columns and labels:
[1] = Antiproliferative activity against human ALL5 cells incubated for 120 hrs followed by MTT addition further incubated for 48 hrs; type: functional, cell-based
ALL5 [2] = assay: Cell cycle arrest in human ALL-5 cells assessed as accumulation at sub-G1 phase after 24 hrs at 5 times of IC50 by propidium iodide staining-based flow cytometric analysis relative to control; type: functional
LoVo = assay: Antiproliferative activity against human LoVo cells incubated for 72 hrs by SRB assay; type: functional, cell-based
[3] = Resistance index, ratio of IC50 for antiproliferative activity against human Lovo/DX cells to IC50 for antiproliferative activity against human LoVo cells; type: functional
cells = type: functional, cell-based; conditions: Homo sapiens, LoVo/DX, 72 h
MCF7 = assay: Antiproliferative activity against human MCF-7 cells incubated for 72 hrs by SRB assay; conditions: MCF7, 72 h
BALB/3T3 = assay: Antiproliferative activity against mouse BALB/3T3 cells incubated for 72 hrs by SRB assay; type: ADME, cell-based; conditions: BALB/3T3, 72 h
A549 = assay: Antiproliferative activity against human A549 cells incubated for 72 hrs by SRB assay; type: functional, cell-based; conditions: A549, 72 h
ALL5 [4] = assay: Induction of apoptosis in human ALL-5 cells assessed as increase in PARP cleavage at 23 nM incubated for 48 hrs by Western blot analysis relative to control; type: functional, cell-based
ALL5 [5] = assay: Induction of apoptosis in human ALL-5 cells assessed as increase in PARP cleavage at 45 nM incubated for 48 hrs by Western blot analysis relative to control; type: functional, cell-based
ALL5 [6] = assay: Induction of apoptosis in human ALL-5 cells assessed as increase in PARP cleavage at 0.2 uM incubated for 24 hrs by Western blot analysis relative to control
ALL5 [7] = assay: Induction of apoptosis in human ALL-5 cells assessed as increase in PARP cleavage at 43 nM incubated for 48 hrs by Western blot analysis relative to control; type: functional, cell-based

SMILES | IC50 [1] [nM] | Activity (ALL5 [2]) | IC50 (LoVo) [nM] | Ratio IC50 [3] | IC50 (cells) [nM] | IC50 (MCF7) [nM] | IC50 (BALB/3T3) [nM] | IC50 (A549) [nM] | Activity (ALL5 [4]) | Activity (ALL5 [5]) | Activity (ALL5 [6]) | Activity (ALL5 [7])
COc1c(I)c2c(c(OC)c1OC)-c1ccc(SC)c(=O)cc1[C@@H](NC(C)=O)CC2 | 8.7 | Active | 7.4 | 91.7 |  |  |  |  |  |  |  | 
CCCCCCCCCC(=O)N[C@H]1CCc2c(I)c(OC)c(OC)c(OC)c2-c2ccc(SC)c(=O)cc21 | 615 |  | 568 | 6.8 | 3870 | 846 | 305 | 833 |  |  |  | 
CCC(=O)N[C@H]1CCc2cc(OC)c(OC)c(OC)c2-c2ccc(SC)c(=O)cc21 | 4.6 |  | 8.5 | 19.1 | 163 | 12.4 | 17.9 | 13.2 | Active |  |  | 
CCN(CC)C(=O)N[C@H]1CCc2c(I)c(OC)c(OC)c(OC)c2-c2ccc(SC)c(=O)cc21 | 81.9 |  | 64.6 | 12.3 | 794 | 94.7 | 107 | 81.3 |  |  |  | 
COc1cc2c(c(OC)c1OC)-c1ccc(SC)c(=O)cc1[C@@H](NC(=O)CCCCl)CC2 | 5.9 | Active | 8.4 | 12.2 | 102 | 11.9 | 20.2 | 13.3 |  |  |  | 
COc1c(I)c2c(c(OC)c1OC)-c1ccc(OC)c(=O)cc1[C@@H](NC(C)=O)CC2 | 15.5 |  | 10.2 | 278 | 2780 | 97.7 | 135 | 93.9 |  |  |  | 
COc1c(I)c2c(c(OC)c1OC)-c1ccc(SC)c(=O)cc1[C@@H](NC(=O)C(C)C)CC2 | 19.9 |  | 7 | 13 | 91.3 | 44.5 | 69.7 | 62.6 |  |  |  | 
CCN(CC)C(=O)N[C@H]1CCc2cc(OC)c(OC)c(OC)c2-c2ccc(SC)c(=O)cc21 | 17.4 |  | 69.1 | 16 | 1100 | 113 | 88.2 | 133 |  |  |  | 
COc1cc2c(c(OC)c1OC)-c1ccc(SC)c(=O)cc1[C@@H](NC(=O)C(C)C)CC2 | 5.5 | Active | 9 | 19.3 | 174 | 13.5 | 69.9 | 15.8 |  |  |  | 
COCC(=O)N[C@H]1CCc2c(I)c(OC)c(OC)c(OC)c2-c2ccc(SC)c(=O)cc21 | 15 |  | 7 | 13.2 | 92.2 | 10.5 | 51.2 | 10.5 |  |  |  | 
COc1c(I)c2c(c(OC)c1OC)-c1ccc(SC)c(=O)cc1[C@@H](NC(=O)c1ccccc1)CC2 | 25.4 |  | 7.2 | 10.2 | 72.9 | 47.5 | 76.2 | 13.3 |  |  |  | 
CCCCCCCCCC(=O)N[C@H]1CCc2cc(OC)c(OC)c(OC)c2-c2ccc(SC)c(=O)cc21 | 27.3 |  | 7.6 | 11.2 | 84.6 | 66.3 | 87.2 | 13.3 |  |  |  | 
COc1cc2c(c(OC)c1OC)-c1ccc(SC)c(=O)cc1[C@@H](NC(=O)c1ccccc1)CC2 | 5.7 |  | 5.6 | 10.4 | 57.9 | 11.2 | 21.6 | 11.2 |  |  |  | 
CCC(=O)N[C@H]1CCc2c(I)c(OC)c(OC)c(OC)c2-c2ccc(SC)c(=O)cc21 | 9 |  | 7.2 | 23.3 | 168 | 10.8 | 39.6 | 11.4 |  | Active |  | 
COc1c(I)c2c(c(OC)c1OC)-c1ccc(SC)c(=O)cc1[C@@H](NC(=O)CCCCl)CC2 | 47.5 |  | 39.2 | 13.5 | 529 | 89.4 | 87.8 | 82.8 |  |  |  | 
COc1cccc2c1C(=O)c1c(O)c3c(c(O)c1C2=O)C[C@@](O)(C(=O)CO)C[C@@H]3O[C@H]1C[C@H](N)[C@H](O)[C@H](C)O1 [DOXORUBICIN] |  |  |  |  | 4750 |  |  | 258 |  |  | Active | 
COCC(=O)N[C@H]1CCc2cc(OC)c(OC)c(OC)c2-c2ccc(SC)c(=O)cc21 | 8.5 |  | 8.2 | 16 | 132 | 12.7 | 12 | 13.5 |  |  |  | 
COc1cc2c(c(OC)c1OC)-c1ccc(OC)c(=O)cc1[C@@H](NC(C)=O)CC2 [COLCHICINE] | 8.6 |  |  |  |  |  | 106 |  |  |  |  | Active
COc1c(I)c2c(c(OC)c1OC)-c1ccc(SC)c(=O)cc1[C@@H](N)CC2 | 135 |  | 126 | 6.7 | 844 | 1700 | 1420 | 866 |  |  |  | 
